ChEMBL document CHEMBL1135016, “Inhibition of amine oxidases activity by 1-acetyl-3,5-diphenyl-4,5-dihydro-(1H)-pyrazole derivatives” (Bioorg Med Chem Lett, 2002)
pKi: −log10 of the molar value.

What was measured:
[1] = Inhibitory activity against Serum amine oxidase
Monoamine oxidase = molecular target: T1, Monoamine oxidase (Bos taurus, UniProt P56560+P21398); assay: Inhibitory activity against Monoamine oxidase from Bovine brain mitochondria
T1 sequence (P56560 whole entry): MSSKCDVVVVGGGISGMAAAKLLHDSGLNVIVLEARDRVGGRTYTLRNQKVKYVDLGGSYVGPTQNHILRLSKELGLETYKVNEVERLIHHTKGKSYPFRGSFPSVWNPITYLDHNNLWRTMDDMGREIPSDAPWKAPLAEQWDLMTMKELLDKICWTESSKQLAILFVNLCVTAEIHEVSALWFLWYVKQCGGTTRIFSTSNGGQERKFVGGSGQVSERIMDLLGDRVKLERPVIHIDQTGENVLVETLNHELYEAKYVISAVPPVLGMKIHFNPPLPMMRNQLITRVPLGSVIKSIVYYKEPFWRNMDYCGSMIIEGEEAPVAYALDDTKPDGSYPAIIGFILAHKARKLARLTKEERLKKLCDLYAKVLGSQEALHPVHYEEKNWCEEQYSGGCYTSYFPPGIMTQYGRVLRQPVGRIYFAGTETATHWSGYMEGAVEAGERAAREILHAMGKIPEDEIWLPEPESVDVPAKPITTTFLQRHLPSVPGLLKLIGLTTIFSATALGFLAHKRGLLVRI
T1 sequence (P21398 whole entry): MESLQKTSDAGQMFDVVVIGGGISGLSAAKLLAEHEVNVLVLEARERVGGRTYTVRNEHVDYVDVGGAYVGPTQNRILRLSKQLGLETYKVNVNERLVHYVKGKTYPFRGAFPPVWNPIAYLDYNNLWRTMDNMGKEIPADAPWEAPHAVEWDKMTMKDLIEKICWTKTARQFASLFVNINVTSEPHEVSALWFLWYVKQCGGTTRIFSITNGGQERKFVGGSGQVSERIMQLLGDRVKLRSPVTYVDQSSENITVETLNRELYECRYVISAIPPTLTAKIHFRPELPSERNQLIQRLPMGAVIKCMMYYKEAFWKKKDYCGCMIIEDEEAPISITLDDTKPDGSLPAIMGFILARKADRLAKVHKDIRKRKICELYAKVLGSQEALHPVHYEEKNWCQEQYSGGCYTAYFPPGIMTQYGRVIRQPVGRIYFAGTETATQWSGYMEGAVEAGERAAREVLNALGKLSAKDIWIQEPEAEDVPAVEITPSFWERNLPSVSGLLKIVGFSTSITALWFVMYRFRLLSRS

[2] = Inhibitory activity against Swine kidney diamine oxidase (SKDAO); No inhibition, corresponding to value >10e-4
[3] = Inhibitory activity against Serum amine oxidase; No inhibition, corresponding to value >10e-4
[4] = molecular target: T2, Amine oxidase [flavin-containing] A (Bos taurus, UniProt P21398); assay: Inhibiting activity of the compound was determined against bovine Monoamine oxidase A
T2 sequence (P21398 whole entry): T1 sequence (P21398 whole entry)

[5] = molecular target: T3, Amine oxidase [flavin-containing] B (Homo sapiens, UniProt P27338); assay: Inhibiting activity of the compound was determined against human Monoamine oxidase B
T3 sequence (P27338 whole entry): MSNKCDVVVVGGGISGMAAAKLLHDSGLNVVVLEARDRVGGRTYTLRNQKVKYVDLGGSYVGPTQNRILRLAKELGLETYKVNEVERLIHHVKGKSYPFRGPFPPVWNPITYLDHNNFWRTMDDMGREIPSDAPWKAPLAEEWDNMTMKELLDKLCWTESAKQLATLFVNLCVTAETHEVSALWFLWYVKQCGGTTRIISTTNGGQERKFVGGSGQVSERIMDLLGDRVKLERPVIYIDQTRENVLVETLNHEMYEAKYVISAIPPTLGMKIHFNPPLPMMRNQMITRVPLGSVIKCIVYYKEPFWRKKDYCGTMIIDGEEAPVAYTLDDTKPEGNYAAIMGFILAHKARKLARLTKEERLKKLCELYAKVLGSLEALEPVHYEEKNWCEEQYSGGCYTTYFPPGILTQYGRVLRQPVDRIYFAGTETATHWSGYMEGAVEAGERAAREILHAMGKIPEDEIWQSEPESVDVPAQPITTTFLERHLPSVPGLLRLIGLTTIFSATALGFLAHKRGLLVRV

pKi [1] | Ki (Monoamine oxidase) | Ki [2] | Ki [3] | pKi [4] | pKi [5] | SMILES
– | 5.5 µM | – | – | – | – | CC(=O)N1N=C(c2ccccc2O)CC1c1cccc(C)c1 (stereo unspecified)
– | 200 µM | No inhibition | No inhibition | – | – | CC(=O)N1N=C(c2ccccc2)CC1c1cccc(C)c1 (stereo unspecified)

Further lines, the compound ahead of its results:

SMILES | pKi [1] | Ki (Monoamine oxidase) | Ki [2] | Ki [3] | pKi [4] | pKi [5]
CC(=O)N1N=C(c2ccccc2O)CC1c1ccccc1C (stereo unspecified) | 4.24 | 300 µM | – | – | – | –
CC(=O)N1N=C(c2ccccc2)CC1c1ccc(Cl)cc1 (stereo unspecified) | – | 6 µM | No inhibition | No inhibition | – | –
CC(=O)N1N=C(c2ccc(O)cc2O)CC1c1cccc(C)c1 (stereo unspecified) | 5.00 | 0.05 µM | – | – | 7.89 | 7.42
CC(=O)N1N=C(c2ccc(O)cc2O)CC1c1ccccc1C (stereo unspecified) | – | 0.08 µM | – | – | 7.28 | 7.52
